Literature values as cited in PubChem BioAssay AID1259409 (Chemical Carcinogenesis Research Information System (CCRIS), 2018).

System: rodent chemically induced tumor inhibition, incidence and multiplicity
Test: CCRIS tumor inhibitor studies

CC(C)=C1C=C(C(C)C)C(O)CC1 (centres undefined)
tumour outcome (control, treated, inhibition, significance) (Carcinogen: 7,12-DIMETHYLBENZ[A]ANTHRACENE, 57-97-6, Dose [Inhibitor]: 0, 12 NMOL PER REPEATED APPLICATION FOR 20 WK (STUDY DURATION: 20 WK), Route [Inhibitor]: DERMAL, Species: MOUSE, Strain/Sex: CD-1/FEMALE, Target Tissue: Type of Lesion: SKIN: TUMOR, Dose [Carcinogen]: 100 UG ONCE, Promoter: OKADAIC ACID, 78111-17-8): 87%, 33%, 62%, not calculated

C#C[C@]1(O)CC[C@H]2[C@@H]3CCC4=CC(=O)CC[C@@H]4[C@H]3CC[C@@]21CC (tested in a mixture with another compound)
tumour outcome (control, treated, inhibition, significance) (Carcinogen: 3-METHYLCHOLANTHRENE, 56-49-5, Dose [Inhibitor]: 0, 1/200 OF A PILL CONTAINING 0.25 UG ETHINYLESTRADIOL AND 2.5 UG NORGESTREL 1/D FOR 60 D (STUDY DURATION: 60 D), Route [Inhibitor]: ORAL, Species: MOUSE, Strain/Sex: SWISS/FEMALE, Target Tissue: Type of Lesion: UTERINE CERVIX: TUMOR, Dose [Carcinogen]: 300 UG IN BEESWAX IMPREGNATED COTTON THREAD INSERTED INTO CANAL OF UTERINE CERVIX FOR DURATION OF STUDY, Promoter: NONE USED): 2/23 (9%), 1/16 (6%), 33%, not significant | tumour outcome (control, treated, inhibition, significance) (Carcinogen: 3-METHYLCHOLANTHRENE, 56-49-5, Dose [Inhibitor]: 0, 1/200 OF A PILL CONTAINING 0.25 UG ETHINYLESTRADIOL AND 2.5 UG NORGESTREL 1/D FOR 90 D (STUDY DURATION: 90 D), Route [Inhibitor]: ORAL, Species: MOUSE, Strain/Sex: SWISS/FEMALE, Target Tissue: Type of Lesion: UTERINE CERVIX: TUMOR, Dose [Carcinogen]: 300 UG IN BEESWAX IMPREGNATED COTTON THREAD INSERTED INTO CANAL OF UTERINE CERVIX FOR DURATION OF STUDY, Promoter: NONE USED): 6/23 (26%), 1/29 (3%), 88%, p<0.05 | tumour outcome (control, treated, inhibition, significance) (Carcinogen: 3-METHYLCHOLANTHRENE, 56-49-5, Dose [Inhibitor]: 0, 1/2000 OF A PILL CONTAINING 0.025 UG ETHINYLESTRADIOL AND 0.25 UG OF NORGESTREL 1/D FOR 60 D (STUDY DURATION: 60 D), Route [Inhibitor]: ORAL, Species: MOUSE, Strain/Sex: SWISS/FEMALE, Target Tissue: Type of Lesion: UTERINE CERVIX: TUMOR, Dose [Carcinogen]: 300 UG IN BEESWAX IMPREGNATED COTTON THREAD INSERTED INTO CANAL OF UTERINE CERVIX FOR DURATION OF STUDY, Promoter: NONE USED): 2/23 (9%), 0/22 (0%), 100%, not significant | tumour outcome (control, treated, inhibition, significance) (Carcinogen: 3-METHYLCHOLANTHRENE, 56-49-5, Dose [Inhibitor]: 0, 1/2000 OF A PILL CONTAINING 0.025 UG ETHINYLESTRADIOL AND 0.25 UG OF NORGESTREL 1/D FOR 90 D (STUDY DURATION: 90 D), Route [Inhibitor]: ORAL, Species: MOUSE, Strain/Sex: SWISS/FEMALE, Target Tissue: Type of Lesion: UTERINE CERVIX: TUMOR, Dose [Carcinogen]: 300 UG IN BEESWAX IMPREGNATED COTTON THREAD INSERTED INTO THE CANAL OF THE UTERINE CERVIX FOR THE DURATION OF STUDY, Promoter: NONE USED): 6/23 (26%), 1/30 (3%), 88%, p<0.05

CC(=O)OCC(=O)[C@H]1CC[C@H]2[C@@H]3CCC4=CC(=O)CC[C@]4(C)[C@H]3CC[C@]12C
tumour outcome (control, treated, inhibition, significance) (Carcinogen: 1,2-DIMETHYLHYDRAZINE DIHYDROCHLORIDE, 306-37-6, Dose [Inhibitor]: 0, 10 MG/KG IN PEANUT OIL ON DAYS 1 AND 3 OF STUDY THEN 1/WK FOR 30 WK (STUDY DURATION: 31 WK), Route [Inhibitor]: SUBCUTANEOUS, Species: RAT, Strain/Sex: SPRAGUE-DAWLEY/MALE, Target Tissue: Type of Lesion: COLON: ADENOCARCINOMA, Dose [Carcinogen]: 9 MG/KG 1/WK FOR 7 WK THEN 19.4 MG/KG 1/WK FOR 13 WK, Promoter: NONE USED): 14/14 (100%), 13/13 (100%), 0%, not significant | tumour outcome (control, treated, inhibition, significance) (Carcinogen: 1,2-DIMETHYLHYDRAZINE DIHYDROCHLORIDE, 306-37-6, Dose [Inhibitor]: 0, 10 MG/KG IN PEANUT OIL ON DAYS 1 AND 3 OF STUDY THEN 1/WK FOR 30 WK (STUDY DURATION: 31 WK), Route [Inhibitor]: SUBCUTANEOUS, Species: RAT, Strain/Sex: SPRAGUE-DAWLEY/MALE, Target Tissue: Type of Lesion: SMALL INTESTINE: ADENOCARCINOMA, Dose [Carcinogen]: 9 MG/KG 1/WK FOR 7 WK THEN 19.4 MG/KG 1/WK FOR 13 WK, Promoter: NONE USED): 13/14 (93%), 9/13 (69%), 26%, not significant

CC(C)(C)c1cc(C(C)(C)C)c(O)c(C(C)(C)C)c1
tumour outcome (control, treated, inhibition, significance) (Carcinogen: BENZO[A]PYRENE, 50-32-8, Dose [Inhibitor]: 0.03 MMOL/G OF DIET DAILY STARTING 7 D BEFORE AND CONTINUING THROUGH 3 D AFTER CARCINOGEN TREATMENT FOLLOWED BY OBSERVAT, Route [Inhibitor]: ORAL, Species: MOUSE, Strain/Sex: ICR/FEMALE, Target Tissue: Type of Lesion: FORESTOMACH: NEOPLASM, Dose [Carcinogen]: 1 MG IN 0.2 ML CORN OIL 2/WK FOR 4 WK, Promoter: NONE USED): 100%, 93%, 7%, not significant

CCCCC(C)(O)C/C=C/[C@H]1[C@H](O)CC(=O)[C@@H]1CCCCCCC(=O)OC (some centres undefined)
tumour outcome (control, treated, inhibition, significance) (Carcinogen: N-METHYL-N'-NITRO-N-NITROSOGUANIDINE, 70-25-7, Dose [Inhibitor]: 0, 200 UG/KG/D IN DRINKING WATER FOR 52 WK CONCURRENTLY WITH CARCINOGEN TREATMENT (STUDY DURATION: 52 WK), Route [Inhibitor]: ORAL, Species: RAT, Strain/Sex: SPRAGUE-DAWLEY/MALE, Target Tissue: Type of Lesion: GLANDULAR STOMACH: ADENOCARCINOMA, Dose [Carcinogen]: 120 MG/L IN DRINKING WATER FOR 52 WK, Promoter: NONE USED): 9/15 (60%), 5/20 (25%), 58%, p<0.05
